The source made the active and inactive calls. The rule behind the calls is not given here.
Target: Induced myeloid leukemia cell differentiation protein Mcl-1 (Homo sapiens) (UniProt Q07820)
Test: Mcl-1/Bim interaction regulators – biochemical, bead-based flow cytometry, multiplexed, human, dose response (AID 1329)
Conditions: Bim peptide-Mcl-1 binding, MCF

Induced myeloid leukemia cell differentiation protein Mcl-1 (Homo sapiens), sequence (Q07820 whole entry, looked up): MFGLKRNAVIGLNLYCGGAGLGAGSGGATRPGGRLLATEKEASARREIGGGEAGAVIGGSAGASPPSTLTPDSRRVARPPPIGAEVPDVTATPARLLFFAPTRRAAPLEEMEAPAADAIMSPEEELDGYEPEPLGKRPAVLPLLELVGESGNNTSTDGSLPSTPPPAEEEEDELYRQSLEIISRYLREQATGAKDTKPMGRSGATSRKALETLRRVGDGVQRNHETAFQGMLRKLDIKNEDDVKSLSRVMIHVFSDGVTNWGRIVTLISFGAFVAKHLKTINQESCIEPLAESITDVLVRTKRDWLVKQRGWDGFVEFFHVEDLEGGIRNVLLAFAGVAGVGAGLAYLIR

Compound	percent span
CN1CCN(c2ccccc2N)CC1	inactive
CC(=O)c1ccc(NC(=O)c2ccc3nc(-c4ccco4)c(-c4ccco4)nc3c2)cc1	inactive
COC(=O)CSc1ncnc2c1sc1nc(-c3ccco3)c3c(c12)CC(C)(C)OC3	inactive
O=C(N/N=C/c1cccnc1)c1cccc(S(=O)(=O)N2CCCC2)c1	inactive
Cc1onc(-c2ccccc2Cl)c1C(=O)Nc1nn[nH]n1	inactive
O=C(Nc1cccc(-c2ccc3nncn3n2)c1)c1ccco1	inactive
COc1ccc(-c2nnc(SCC(=O)Nc3nc4ccccc4s3)n2C)cc1	inactive
CCOc1ccc(C(=O)Nc2nnc(NC(=S)Nc3ccccc3)s2)cc1	inactive
O=C1NC(=S)S/C1=C/c1ccc(N2CCOCC2)o1	inactive
Fc1ccc(/C=C2\CCCC3=C2NC(=S)NC3c2ccc(F)cc2)cc1 (stereo not given)	inactive
Cc1cc(C)c(C)c(S(=O)(=O)N2CCN(CC(=O)NC(=O)NCc3ccccc3)CC2)c1C	inactive
O=C(O)c1ccc(NC2=C/C(=N/S(=O)(=O)c3ccccc3)c3ccccc3C2=O)cc1	inactive
CCCCC(=O)Nc1ccc(C(=O)N2CCC(C(=O)OCC)CC2)cc1	inactive
Cc1sc2nc(C(C)C)nc(SCC(=O)N3c4ccccc4CC3C)c2c1C (stereo not given)	inactive
O=C(NCc1ccco1)C1CC2CCC1C2 (stereo not given)	inactive
CCN(CC)c1nc(N)nc(N(c2ccccc2)c2ccccc2)n1	inactive
CN(Cc1ccccc1)c1nc2c(c(=O)[nH]c(=O)n2C)n1C	inactive
COc1ccccc1Oc1ccc2c(c1)C(=O)N(c1cccc3ncccc13)C2=O	inactive
Clc1ccc2c(N/N=C/c3cccc(Br)c3)ccnc2c1	inactive
COc1cccc(/C=N/Nc2nn3cnnc3c3ccccc23)c1O	inactive
S=C(Nc1ccccc1)N1CCn2cccc2C1c1cccnc1 (stereo not given)	inactive
CCOC(=O)CSC1=NC(=O)/C(=C/c2ccc(OC)cc2)S1	inactive
Cc1nc(=S)c2ccccc2[nH]1	inactive
CCc1nnc(NC(=O)CSc2nnc(COc3ccc(C)cc3)n2-c2ccccc2)s1	inactive
Cc1cc(-c2nnc(CCC(=O)NC(C)c3cccc4ccccc34)o2)no1 (stereo not given)	inactive
c1cncc(-c2nnc3n2N=C(c2cccs2)CS3)c1	inactive
COc1ccc2nc(C)cc(SCC(=O)N/N=C/c3ccc(O)cc3O)c2c1	inactive

Compound	percent span
CCOC(=O)C1(Cc2cccc(OC)c2)CCN(Cc2cccc(OC)c2OC)CC1	inactive
O=[N+]([O-])c1cccc(S(=O)(=O)NCC2CCCO2)c1 (stereo not given)	inactive
CCOc1ccc(CNc2ccc(N3CCCC3)cc2)cc1	inactive
CCOc1cc(C2Nc3cccc4cccc(c34)N2)ccc1O	inactive
Cc1ccc(-c2c3c([nH]c(=S)c2C#N)CCCC3)o1	inactive
O=C(O)CC/C(=C\c1cc([N+](=O)[O-])ccc1Cl)c1nc2ccccc2s1	inactive
CCC(CC)C(=O)Nc1cccc(S(=O)(=O)c2cccc(NC(=O)C(CC)CC)c2)c1	inactive
Cc1nn(-c2ccc(Cl)c(Cl)c2)c(C)c1C(=O)O	inactive
Nc1cccc(-c2cn3cccnc3n2)c1	inactive
CCc1ccc(NC(=O)CC2NCCNC2=O)cc1 (stereo not given)	inactive
Cc1ccc(/C=C2/NC(=O)N(Cc3ccccc3)C2=O)o1	inactive
O=C1/C(=C\c2ccco2)NC(=S)N1c1ccccc1	inactive
Cc1ccc(-c2cc(C(=O)Nc3nccs3)c3ccccc3n2)o1	inactive
Cc1ccc(-c2cc(-c3ccc(F)cc3)nc(N)c2C#N)o1	inactive
c1coc(C2=Nc3cccc4cccc(c34)N2)c1	inactive
CCN1CCN(c2ccc(NC(=O)c3cccc4ncccc34)cc2)CC1	inactive
Cc1cccc(-n2c(O)c(/C=N/N3CCOCC3)c(=O)[nH]c2=S)c1	inactive
O=C(CC1NCCNC1=O)Nc1cccc([N+](=O)[O-])c1 (stereo not given)	inactive
Cc1ccc(C(=O)CCC(=O)Nc2ccc(Cl)c(S(=O)(=O)Nc3cccc(Cl)c3)c2)cc1	inactive
CCC(=O)OCCNc1cc(Sc2nccn2C)c2nonc2c1[N+](=O)[O-]	inactive
O=C(C[n+]1ccc(-c2nnc3n2CCC3)cc1)c1ccc(Cl)cc1	inactive
O=C(NCCCN1CCCC1=O)NC1CCCCC1	inactive
Cc1ccc(-c2cc(C(=O)N3CCN(c4ncccn4)CC3)c3cc(Br)ccc3n2)o1	inactive
COc1c(F)c(F)c(C(=O)Nc2ccccc2N2CCN(C(=O)C(C)C)CC2)c(F)c1F	inactive
O=C(NNC(=O)C12CC3CC(CC(C3)C1)C2)c1ccco1	inactive
S=C1NC2=C(CCC/C2=C\c2ccccc2)C(c2ccccc2)N1 (stereo not given)	inactive
S=C(Nc1ccc(N2CCOCC2)cc1)Nc1ccc2nc(-c3ccco3)c(-c3ccco3)nc2c1	inactive

Compound	percent span
COc1ccc(C(=O)Nc2ccc(NC(=O)c3cccs3)cc2)cc1Cl	inactive
COc1cccc2c(SCC(=O)N/N=C/c3ccccc3)cc(C)nc12	inactive
CCCCc1ccc(NC(=S)NCc2ccc(OC)cc2)cc1	inactive
CC(C)(C)C(=O)NC(NC(=S)Nc1ccc(S(N)(=O)=O)cc1)C(Cl)(Cl)Cl (stereo not given)	inactive
COc1ccc(Cc2c(O)nc(SC)n(C(C)=O)c2=O)cc1	inactive
CCC(=O)N(CC)C1=C(O)c2ccccc2C(=O)C1=O	inactive
COc1ccc(NC(=O)c2ccc(CN3CCN(c4ccccc4)CC3)cc2)cc1	inactive
Cc1ccc(OCc2cn3cccnc3n2)cc1	inactive
CCOc1ccc2nc(SCC(=O)N3c4ccccc4Sc4ccccc43)c(C#N)cc2c1	inactive
COc1ccc(S(=O)(=O)NCCOc2cccc3cccnc23)cc1OC	inactive
Cc1ccccc1/C=N/Nc1ccnc2cc(Cl)ccc12	inactive
CC1CC2=C(NC(=S)NC2c2ccccc2F)/C(=C/c2ccccc2F)C1 (stereo not given)	inactive
Cc1c(NC2=C(Cl)C(=O)N(c3ccccc3)C2=O)c(=O)n(-c2ccccc2)n1C	inactive
CCOc1ccc(C2=Nn3c(nnc3-c3ccccn3)SC2)cc1	inactive
CCN(CC)c1ccc(-c2nn3c(-c4n[nH]c5c4CCC5)nnc3s2)cc1	inactive
O=C(NC1=NCCS1)NC12CC3CC(CC(C3)C1)C2	inactive
CCOC(=O)/C(=C\c1cccc(O)c1)c1nc2sc(C)c(C)c2c(=O)[nH]1	inactive
c1ccc(-c2nnc(OCCN3CCOCC3)c3ccccc23)cc1	inactive
Cc1ccc(C)c(N2CCN(C(=S)Nc3ccc4nc(N5CCN(C)CC5)cc(C)c4c3)CC2)c1	inactive
COc1cc2c(cc1OC)C(c1ccccc1F)OC(=O)C2 (stereo not given)	inactive
C1=CC2c3ccccc3NC(c3ccncc3)C2C1 (stereo not given)	inactive
OC(CNC1CCCCC1)COCCOc1ccc(Br)cc1 (stereo not given)	inactive
COc1ccc(NC(=O)COc2ncnc3ccccc23)cc1S(=O)(=O)N1CCOCC1	inactive
COc1ccc(C2CC(=O)C3=C(C2)Nc2ccccc2NC3c2coc3ccccc3c2=O)cc1OC (stereo not given)	inactive
Cc1ccc(S(=O)(=O)N(C)CC(=O)N2CCc3ccccc32)cc1	inactive
CCCc1nnc2n1N=C(c1ccc(-c3cc(Cl)ccc3Cl)o1)CS2	inactive
Cc1cc(C)nc(SCc2cc(=O)c(OC(=O)c3cccc([N+](=O)[O-])c3)co2)n1	inactive

Compound	percent span
O=C(CSc1ccc2nnc(-c3ccncc3)n2n1)Nc1nccs1	inactive
CCCCCCc1cc2cc(C(=O)Nc3ccccc3)c(=O)oc2cc1O	inactive
N#C/C(=C(/O)CN1CCN(c2ccccc2F)CC1)c1nc(-c2ccccc2)cs1	inactive
Cc1ccc(-c2cc(C(=O)Nc3ccccc3C)c3ccccc3n2)o1	inactive
CSc1ccccc1NC(=O)CN(C)CC(=O)Nc1ccc(N2CCOCC2)cc1	inactive
CN1CCS/C1=C/C=C1/SC(=S)N(Cc2ccccc2)C1=O	inactive
Cc1ccc2cc(C)c(Sc3nnnn3-c3ccccc3)nc2c1	inactive
COc1ccc(CN(C)CC(=O)NC(C)c2ccccc2)c(OC)c1 (stereo not given)	inactive
Nc1ccc(Nc2nc(-c3ccncc3)cs2)cc1	inactive
Cc1ccc(-c2ccc(/C=C3\SC(N4CCOCC4)=NC3=O)o2)cc1	inactive
CC1N(C)c2cccc3cccc(c23)N1C	inactive
O=C(NC1=C(Nc2ccc(Cl)cc2)C(=O)c2ccccc2C1=O)c1ccccc1	inactive
Cn1c(CCNC(=O)C2CCCCC2)nc2cc(NC(=O)c3cccs3)ccc21	inactive
O=C(/C=C/c1ccc(-c2ccccc2[N+](=O)[O-])o1)c1ccc(F)cc1	inactive
O=C1c2ccccc2C(=O)N1c1cccc2cccnc12	inactive
CCCn1c(N2CCN(C)CC2)nc2c1c(=O)[nH]c(=O)n2C	inactive
Cc1ccccc1-n1nc(SCC(=O)O)sc1=S	inactive
Cc1ccc(N=c2ssnc2Cl)cc1	inactive
CN1C2C=C3C(C#N)=C(N)C(C#N)(C#N)[C@@H](c4ccsc4)[C@@H]3C1CC2 (stereo not given in full)	inactive
CN(C)/C=C/C(=O)c1ccc(C(F)(F)F)cc1F	inactive
CC1C=CCC2C(=O)N(c3ccc(OC(=O)c4cccs4)cc3)C(=O)C12 (stereo not given)	inactive
COc1ccc(OC)c(Nc2ccc(C(=O)O)cc2[N+](=O)[O-])c1	inactive
Cn1c(CNc2nc(-c3ccccc3)cs2)nnc1SCC(=O)N1CCc2ccccc21	inactive
COc1cc(/C=C2/NC(=O)N(Cc3ccccc3F)C2=O)ccc1O	inactive

— PubChem BioAssay AID1329 (NMMLSC, 2008)
